Measurements reported in patent publication US9126944B2, “Phenylpyrazole derivatives as potent ROCK1 and ROCK2 inhibitors” (BRISTOL-MYERS SQUIBB COMPANY, priority 2013, dated 2015).
pIC50: −log10 of the molar value. Read-outs that look alike come from different tables or passages of the source. Blank lines part the entries; values can stand above or below the compound they belong to.

Tests used:
ROCK1 = ROCK1 (Homo sapiens, UniProt Q13464); assay: ROCK assay (LabChip peptide phosphorylation), ROCK1; format: biochemical; settings: 5 μM ATP, 1.5 μM peptide substrate
ROCK1, sequence (Q13464 whole entry, species assumed): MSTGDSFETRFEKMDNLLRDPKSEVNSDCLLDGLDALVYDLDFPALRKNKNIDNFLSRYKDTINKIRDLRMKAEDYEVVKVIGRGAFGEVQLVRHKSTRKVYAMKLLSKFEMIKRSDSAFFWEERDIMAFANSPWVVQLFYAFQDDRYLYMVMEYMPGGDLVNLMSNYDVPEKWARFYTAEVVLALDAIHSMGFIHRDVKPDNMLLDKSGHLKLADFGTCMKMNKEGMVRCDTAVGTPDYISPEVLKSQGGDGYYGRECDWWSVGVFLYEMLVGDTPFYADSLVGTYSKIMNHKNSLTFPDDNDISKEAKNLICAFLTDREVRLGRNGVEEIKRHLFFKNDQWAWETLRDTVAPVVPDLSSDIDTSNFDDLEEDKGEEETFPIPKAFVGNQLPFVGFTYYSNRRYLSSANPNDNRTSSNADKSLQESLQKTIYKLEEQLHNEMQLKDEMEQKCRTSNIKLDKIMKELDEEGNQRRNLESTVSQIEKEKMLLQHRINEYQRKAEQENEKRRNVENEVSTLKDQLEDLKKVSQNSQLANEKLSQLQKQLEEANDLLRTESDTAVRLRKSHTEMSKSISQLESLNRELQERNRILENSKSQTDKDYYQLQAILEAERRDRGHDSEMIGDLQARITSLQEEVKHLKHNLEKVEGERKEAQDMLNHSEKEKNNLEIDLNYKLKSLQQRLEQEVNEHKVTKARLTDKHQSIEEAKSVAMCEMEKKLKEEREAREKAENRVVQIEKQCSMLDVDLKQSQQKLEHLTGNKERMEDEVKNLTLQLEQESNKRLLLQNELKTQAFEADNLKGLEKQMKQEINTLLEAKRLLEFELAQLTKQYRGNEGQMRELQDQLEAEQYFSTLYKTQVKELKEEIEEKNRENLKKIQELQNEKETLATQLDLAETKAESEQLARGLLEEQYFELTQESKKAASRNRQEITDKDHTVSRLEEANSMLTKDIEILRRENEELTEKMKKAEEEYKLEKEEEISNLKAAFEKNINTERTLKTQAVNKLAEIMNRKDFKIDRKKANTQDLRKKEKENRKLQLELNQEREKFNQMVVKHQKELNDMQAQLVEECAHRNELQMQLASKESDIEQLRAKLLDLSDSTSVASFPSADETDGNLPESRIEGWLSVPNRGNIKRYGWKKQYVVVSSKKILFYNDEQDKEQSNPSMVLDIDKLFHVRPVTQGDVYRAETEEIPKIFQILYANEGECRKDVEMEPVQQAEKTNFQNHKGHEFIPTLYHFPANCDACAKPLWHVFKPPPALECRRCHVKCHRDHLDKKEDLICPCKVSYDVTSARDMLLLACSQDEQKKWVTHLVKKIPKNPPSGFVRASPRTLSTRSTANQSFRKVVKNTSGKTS

neointimal formation = settings: rats, model similar to balloon injury; cited from earlier work
[1] = test system: three rat models of hypertension; settings: cited from earlier work
[2] = test system: IL-1 beta-induced coronary stenosis; settings: porcine model, long term treatment; cited from earlier work

Compound: COc1cc(C(=O)NCc2cccc(O)c2)ccc1-c1cn[nH]c1 [Example 6, N-(3-hydroxybenzyl)-3-methoxy-4-(1H-pyrazol-4-yl)benzamide]
pIC50 (ROCK1): 9.07

Compound: COC(=O)c1cccc(CNC(=O)c2ccc(-c3cn[nH]c3)c(OC)c2)c1 [Example 8, methyl 3-((3-methoxy-4-(1H-pyrazol-4-yl)benzamido)methyl)benzo-ate]
pIC50 (ROCK1): 8.58

Compound: C[C@@H](N)[C@H]1CC[C@H](C(=O)Nc2ccncc2)CC1 [Example Y-27632, Y-27632]
neointimal formation (neointimal formation): inhibited neointimal formation
blood pressure ([1]; control rats): only a minor effect on blood pressure
blood pressure ([1]; spontaneously hypertensive rat, renal hypertensive rat and deoxycortisone acetate salt hypertensive rat models): significantly decrease blood pressure

Compound: O=S(=O)(c1cccc2cnccc12)N1CCCNCC1 [fasudil]
coronary constrictive remodeling [2]: promote a regression of coronary constrictive remodeling
coronary stenosis [2]: progressively reduce coronary stenosis

The remaining lines, values ahead:

pIC50 (ROCK1): 7.58
Compound: COc1cc(C(=O)NC(C)c2cc(F)cc(F)c2)ccc1-c1cn[nH]c1 (racemic) [Example 67, (+/−)-N-(1-(3,5-difluorophenyl)ethyl)-3-methoxy-4-(1H-pyrazol-4-yl)benzamide]

pIC50 (ROCK1): 8.52
Compound: CNC(=O)c1cccc(CNC(=O)c2ccc(-c3cn[nH]c3)c(OC)c2)c1 [Example 65, 3-methoxy-N-(3-(methylcarbamoyl)benzyl)-4-(1H-pyrazol-4-yl)benzamide]
